Experimental data published in ChEMBL document CHEMBL1938302, “Synthesis of novel histamine H4 receptor antagonists” (Bioorg Med Chem Lett, 2012).
Several values for one entry are separate records, joined by “and”; a condition that tells them apart may be missing. Equal entries are not always repeated. Activity calls are given as the source filed them. The calls are words filed in the database; no cut-off is given here.

Key:
Histamine H4 receptor [1] = biological target: T1, Histamine H4 receptor (Homo sapiens, UniProt Q9H3N8); test: Displacement of [3H]histamine from human recombinant histamine H4 receptor expressed in CHO cells coexpressing Ga15 by radioligand filtration binding assay; type: cell-based
T1 sequence (Q9H3N8 whole entry): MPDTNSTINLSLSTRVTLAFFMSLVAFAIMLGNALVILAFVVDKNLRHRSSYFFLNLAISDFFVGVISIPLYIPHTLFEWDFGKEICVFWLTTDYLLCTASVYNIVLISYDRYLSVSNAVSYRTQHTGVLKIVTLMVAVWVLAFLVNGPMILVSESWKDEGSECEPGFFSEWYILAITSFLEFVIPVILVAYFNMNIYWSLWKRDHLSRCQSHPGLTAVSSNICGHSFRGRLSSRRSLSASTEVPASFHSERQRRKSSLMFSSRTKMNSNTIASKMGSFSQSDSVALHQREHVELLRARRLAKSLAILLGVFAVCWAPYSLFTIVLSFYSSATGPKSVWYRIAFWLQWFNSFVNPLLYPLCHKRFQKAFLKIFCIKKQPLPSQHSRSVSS

Histamine H4 receptor [2] = biological target: T1, Histamine H4 receptor; test: Antagonist activity at human histamine H4 receptor expressed in HEK293 cells assessed as rev inhibition of forskolin-stimulated cAMP accumulation by CRE-betalactamase reporter gene assay; type: functional, cell-based
Histamine H3 receptor = Histamine H3 receptor (Homo sapiens, UniProt Q9Y5N1); test: Binding affinity to human histamine H3 receptor
Histamine H3 receptor, sequence (Q9Y5N1 whole entry): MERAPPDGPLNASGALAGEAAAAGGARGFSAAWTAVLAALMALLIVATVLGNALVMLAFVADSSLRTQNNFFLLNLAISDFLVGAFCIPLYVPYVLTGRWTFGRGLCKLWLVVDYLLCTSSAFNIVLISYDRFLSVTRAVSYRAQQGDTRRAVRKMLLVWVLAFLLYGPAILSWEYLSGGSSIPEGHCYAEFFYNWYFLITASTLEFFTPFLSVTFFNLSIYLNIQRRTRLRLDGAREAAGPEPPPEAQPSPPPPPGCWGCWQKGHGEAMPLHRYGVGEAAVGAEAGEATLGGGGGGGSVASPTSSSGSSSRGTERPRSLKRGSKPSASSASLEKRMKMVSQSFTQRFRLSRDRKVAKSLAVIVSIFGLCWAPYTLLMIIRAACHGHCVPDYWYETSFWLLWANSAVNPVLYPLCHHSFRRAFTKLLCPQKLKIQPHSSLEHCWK

[3] = Metabolic stability in human liver microsomes; type: ADME, Microsome; conditions: read-out: Stability
[4] = Metabolic stability in rat liver microsomes; type: ADME, Microsome; conditions: read-out: Stability
Rattus norvegicus [5] = test: Clearance in rat at 1 mg/kg, iv; type: ADME, organism-based; set-up: dose 1 mg/kg, route intravenous; conditions: in vivo
[6] = Half life in rat at 1 mg/kg, iv; type: ADME, organism-based; set-up: dose 1 mg/kg, route intravenous; conditions: in vivo
[7] = Chemical stability of the compound in methanol; type: physicochemical
Rattus norvegicus [8] = test: Clearance in rat at 10 mg/kg, sc; type: ADME, organism-based; set-up: dose 10 mg/kg, route subcutaneous; conditions: in vivo
[9] = Half life in rat at 10 mg/kg, sc; type: ADME, organism-based; set-up: dose 10 mg/kg, route subcutaneous; conditions: in vivo
Rattus norvegicus [10] = test: Volume of distribution in rat at 10 mg/kg, sc; type: ADME, organism-based; set-up: dose 10 mg/kg, route subcutaneous; conditions: in vivo
[11] = Half life in rat; type: ADME, organism-based; conditions: in vivo
Rattus norvegicus [12] = test: Volume of distribution in rat at 3 mg/kg, sc; type: ADME, organism-based; set-up: dose 3 mg/kg, route subcutaneous; conditions: in vivo
[13] = Half life in rat at 3 mg/kg, sc; type: ADME, organism-based; set-up: dose 3 mg/kg, route subcutaneous; conditions: in vivo
[14] = Oral bioavailability in rat; type: ADME, organism-based; conditions: in vivo
[15] = Volume of distribution in rat at 1 mg/kg, iv; type: ADME, organism-based; set-up: dose 1 mg/kg, route intravenous; conditions: in vivo

Row | Structure (SMILES) | Ki (Histamine H4 receptor [1]) | Ki (Histamine H4 receptor [2]) | Ki (Histamine H3 receptor) | Stability [7] | also measured
1 | CN1C[C@@H]2CN(C(=O)c3cc4ccc(Cl)nc4[nH]3)C[C@@H]2C1 | 2090 nM | – | – | – | –
2 | CN1CCN(C(=O)c2cc3cccnc3[nH]2)CC1 | 3100 nM | > 29900 nM | 36600 nM | – | –
3 | CCN1C[C@@H]2CN(C(=O)c3nc4cc(Cl)ccc4[nH]3)C[C@@H]2C1 | 1960 nM | 3300 nM | – | – | –
4 | Cc1c(F)ccc2nc(C(=O)N3C[C@H]4CN(C)C[C@H]4C3)[nH]c12 | 52 nM | 97 nM | – | – | microsomal CLint [3]: < 7 µL/min/mg; microsomal CLint [4]: 214 µL/min/mg
5 | CN1C[C@@H]2CN(C(=O)c3nc4ccccc4[nH]3)C[C@@H]2C1 | 102 nM | 189 nM | – | – | –
6 | CN1C[C@@H]2CN(C(=O)c3nc4ccc(F)c(F)c4[nH]3)C[C@@H]2C1 | 74 nM | 134 nM | – | – | –
7 | CN1C[C@@H]2CN(C(=O)c3nc4cc(F)c(F)cc4[nH]3)C[C@@H]2C1 | – | 236 nM | 17900 nM | – | clearance (Rattus norvegicus [5]): 58 mL/min/kg; microsomal CLint [3]: < 7 µL/min/mg; microsomal CLint [4]: 40 µL/min/mg; half-life [6]: 48 min
8 | CN1C[C@@H]2CN(C(=N)c3nc4cc(F)ccc4[nH]3)C[C@@H]2C1 | 4.6 nM | 9.1 nM | 1190 nM | Unstable | –
9 | Cc1c(F)ccc2nc(C(=N)N3C[C@H]4CN(C)C[C@H]4C3)[nH]c12 | 4.6 nM | 9.3 nM | – | Unstable | –
10 | CN1C[C@@H]2CN(C(=N)c3nc4c(F)c(F)c(F)cc4[nH]3)C[C@@H]2C1 | 70 nM | 20 nM | > 20000 nM | Unstable | –
11 | CN1C[C@@H]2CN(C(=O)c3cc4cc(Cl)cnc4[nH]3)C[C@@H]2C1 | 83 nM | – | – | – | –
12 | CN1C[C@@H]2CN(C(=N)c3nc4cc(Cl)ccc4[nH]3)C[C@@H]2C1 | – | 56 nM | – | Unstable | –
13 | CN1CCN(C(=O)c2nc3cc(Cl)ccc3[nH]2)CC1 | – | – | 20000 nM | – | clearance (Rattus norvegicus [8]): 700 mL/min/kg; microsomal CLint [3]: 19 µL/min/mg; half-life [9]: 42 min; Vd (Rattus norvegicus [10]): 23 L/kg
14 | CN1CCN(C(=O)c2cn3ccncc3n2)CC1 | 20100 nM | > 20000 nM | – | – | –
15 | CN1CCN(C(=O)c2cc3cc(Cl)ccc3[nH]2)CC1 [JNJ-7777120] | – | – | 15300 nM and > 20000 nM | – | half-life [11]: 42 min; Vd (Rattus norvegicus [12]): 2.3 L/kg; half-life [13]: 12 min
16 | CN1C[C@@H]2CN(C(=N)c3nc4ccccc4[nH]3)C[C@@H]2C1 | 6.5 nM | 12.4 nM | 3810 nM | Unstable | –
17 | CN1CCN(C(=O)c2cn3cc(Cl)ccc3n2)CC1 | 3170 nM | > 11400 nM | 28600 nM | – | –
18 | O=C(c1nc2cc(Cl)ccc2[nH]1)N1C[C@H]2CNC[C@H]2C1 | 5080 nM | 8180 nM | – | – | –
19 | CN1C[C@@H]2CN(C(=O)c3cc4cccnc4[nH]3)C[C@@H]2C1 | 973 nM | – | – | – | –
20 | CN1C[C@@H]2CN(C(=O)c3nc4cc(Cl)ccc4[nH]3)C[C@@H]2C1 | 129 nM | 218 nM | – | – | microsomal CLint [3]: < 7 µL/min/mg; microsomal CLint [4]: 36 µL/min/mg
21 | CN1C[C@@H]2CN3C(c4nc5cc(F)c(F)cc5[nH]4)=NC[C@H]3[C@@H]2C1 | – | – | – | Stable | inhibition (Histamine H4 receptor [1]): inactive; inhibition (Histamine H4 receptor [2]): inactive
22 | CC(C)N1C[C@H]2CN(C(=O)c3nc4cc(Cl)ccc4[nH]3)C[C@H]2C1 | 2670 nM | 4490 nM | – | – | –
23 | CN1C[C@@H]2CN(C(=O)c3cc4cc(Cl)ccc4[nH]3)C[C@@H]2C1 | – | – | 8750 nM | – | microsomal CLint [3]: < 7 µL/min/mg
24 | CN1C[C@@H]2CN(C(=N)c3nc4c(F)c(F)ccc4[nH]3)C[C@@H]2C1 | 49 nM | – | – | Unstable | –
25 | CN1C[C@@H]2CN(C(=N)c3nc4cc(F)c(F)cc4[nH]3)C[C@@H]2C1 | 9.5 nM | 17.2 nM | 3090 nM | Unstable | clearance (Rattus norvegicus [5]): 31 mL/min/kg; microsomal CLint [3]: < 7 µL/min/mg; bioavailability [14]: 20%; Vd [15]: 48 L/kg; half-life [6]: 660 min
26 | Clc1ccc2[nH]c(C3=NCCN3)nc2c1 | – | – | – | Stable | inhibition (Histamine H4 receptor [1]): inactive; inhibition (Histamine H4 receptor [2]): inactive
27 | CN1C[C@@H]2CN(C(=O)c3nc4cc(F)ccc4[nH]3)C[C@@H]2C1 | – | 145 nM | 15500 nM | – | clearance (Rattus norvegicus [5]): 161 mL/min/kg; microsomal CLint [3]: < 7 µL/min/mg; Vd [15]: 6.1 L/kg; half-life [6]: 42 min
